Literature values, collected in publication PMC11491004, “CHF6523 data suggest that the phosphoinositide 3-kinase delta isoform is not a suitable target for the management of COPD” (Respiratory Research, 2024).

Legend:
airway inflammation = system: airway inflammation; design: method as in ref 12 = [12]; 12. Blomqvist S Andreasson T Arlbrandt S Bold P Bjorhall K Brülls M In vivo dual Pi3kγδ inhibition in a rat model of pulmonary inflammation - evidence of local therapeutic activity Am J Respir Crit Ca; conditions: cited from earlier work
PI3Kδ [1] = molecular target: T1, PI3Kδ (Homo sapiens, UniProt O00329); design: from tissue; host or cells: induced sputum of COPD patients (in vivo dosing by inhalation); method as in PMID 36841351; conditions: activated PI3Kδ syndrome; cited from earlier work
sputum IL-6 and IL-8 = system: sputum IL-6 and IL-8; design: method as in PMID 28823947; conditions: patients with COPD; cited from earlier work
PI3Kδ [2] = molecular target: T1, PI3Kδ; design: method as in ref 14 = [14]; 14. Wilson R Cahn A Montembault M Green J Musani N Begg M Safety, tolerability, pharmacokinetics (PK) and pharmacodynamics (PD) of single (SD) and repeat (RD) inhaled doses of a novel phosphoinositide; conditions: healthy volunteer study; Day 12; cited from earlier work
PI3Kδ [3] = molecular target: T1, PI3Kδ; design: from tissue; host or cells: induced sputum of COPD patients (in vivo dosing by inhalation); method as in PMID 30886125; conditions: healthy smokers; cited from earlier work
[4] = system: sputum IL-5, IL-13, IL-6 or IL-8; design: method as in PMID 30217958; conditions: patients with asthma; cited from earlier work
[5] = design: method as in PMID 34113095; conditions: cited from earlier work

T1 sequence (O00329 whole entry): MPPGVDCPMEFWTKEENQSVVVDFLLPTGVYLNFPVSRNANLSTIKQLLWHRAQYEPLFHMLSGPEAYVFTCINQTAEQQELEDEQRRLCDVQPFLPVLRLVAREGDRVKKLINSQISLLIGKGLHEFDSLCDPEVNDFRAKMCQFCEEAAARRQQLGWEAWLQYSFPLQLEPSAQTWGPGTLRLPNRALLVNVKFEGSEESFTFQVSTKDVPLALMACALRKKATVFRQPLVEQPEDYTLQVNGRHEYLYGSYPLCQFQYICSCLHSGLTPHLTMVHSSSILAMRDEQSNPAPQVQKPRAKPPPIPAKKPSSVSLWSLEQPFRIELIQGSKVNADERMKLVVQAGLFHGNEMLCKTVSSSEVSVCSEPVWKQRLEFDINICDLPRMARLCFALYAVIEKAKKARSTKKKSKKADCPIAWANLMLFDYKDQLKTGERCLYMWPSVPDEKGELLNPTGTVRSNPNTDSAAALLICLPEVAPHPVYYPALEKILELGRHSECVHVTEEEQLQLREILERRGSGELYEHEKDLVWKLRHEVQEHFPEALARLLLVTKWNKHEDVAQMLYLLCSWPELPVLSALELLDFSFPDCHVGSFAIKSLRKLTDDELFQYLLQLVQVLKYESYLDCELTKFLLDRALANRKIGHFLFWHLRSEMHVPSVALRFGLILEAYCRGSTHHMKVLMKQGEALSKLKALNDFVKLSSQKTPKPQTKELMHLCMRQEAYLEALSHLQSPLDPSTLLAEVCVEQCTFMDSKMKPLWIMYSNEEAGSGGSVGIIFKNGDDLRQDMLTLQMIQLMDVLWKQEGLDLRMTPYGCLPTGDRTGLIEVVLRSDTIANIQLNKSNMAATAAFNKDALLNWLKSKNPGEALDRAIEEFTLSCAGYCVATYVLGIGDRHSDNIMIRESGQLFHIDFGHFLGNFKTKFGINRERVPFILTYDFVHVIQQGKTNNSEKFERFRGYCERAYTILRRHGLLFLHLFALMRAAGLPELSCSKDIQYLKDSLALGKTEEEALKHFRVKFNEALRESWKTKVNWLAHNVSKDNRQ
T1 sequence (P27986 whole entry partner): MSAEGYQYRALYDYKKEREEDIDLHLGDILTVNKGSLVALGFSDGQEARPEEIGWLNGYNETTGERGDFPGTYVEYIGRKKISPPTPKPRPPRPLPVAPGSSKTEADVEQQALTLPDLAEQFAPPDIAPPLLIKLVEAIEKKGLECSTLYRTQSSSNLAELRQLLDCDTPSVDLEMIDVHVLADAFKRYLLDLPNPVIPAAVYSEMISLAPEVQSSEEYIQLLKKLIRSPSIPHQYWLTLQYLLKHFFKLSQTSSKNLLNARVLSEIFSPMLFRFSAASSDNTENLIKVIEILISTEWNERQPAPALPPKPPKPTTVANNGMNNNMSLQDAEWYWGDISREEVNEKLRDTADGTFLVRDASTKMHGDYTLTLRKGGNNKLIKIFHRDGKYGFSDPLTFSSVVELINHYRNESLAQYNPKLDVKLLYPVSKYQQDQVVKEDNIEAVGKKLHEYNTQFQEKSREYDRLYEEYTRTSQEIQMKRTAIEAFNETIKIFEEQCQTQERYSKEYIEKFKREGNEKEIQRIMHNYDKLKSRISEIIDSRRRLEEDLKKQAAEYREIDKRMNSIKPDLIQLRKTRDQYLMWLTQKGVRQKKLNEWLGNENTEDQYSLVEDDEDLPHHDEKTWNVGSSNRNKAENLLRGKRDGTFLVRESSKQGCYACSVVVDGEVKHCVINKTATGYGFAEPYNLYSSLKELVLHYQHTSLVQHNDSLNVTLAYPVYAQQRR

Row | Structure (SMILES) | Efficacy in a rat model of airway inflammation (airway inflammation) | Changes in target engagement or downstream inflammatory markers in induced sputum (PI3Kδ [1]) | Sputum IL-6 and IL-8 levels compared to placebo (sputum IL-6 and IL-8) | Reduction in PIP3 (PI3Kδ [2]) | Target engagement (PI3Kδ [3]) | Sputum IL-5, IL-13, IL-6 or IL-8 compared to placebo [4] | Primary and secondary endpoints ([5]; Phase IIb, patients with exacerbating COPD) | Most common adverse event ([5]; experienced post-inhalation and dose-related)
1 | Cc1nc(Nc2cccc(N3CCCC3=O)n2)sc1-c1cc2c(c(S(C)(=O)=O)c1)C(=O)N([C@@H](C)C1CC1)C2 [AZD8154] | demonstrated efficacy |  |  |  |  |  |  | 
2 | CC(C)N1CCN(Cc2cnc(-c3cc(-c4cccc5[nH]ccc45)cc4[nH]ncc34)o2)CC1 [nemiralisib] |  | no meaningful changes | did not significantly reduce | 35.7% | demonstrated target engagement | did not yield statistically significant reductions | neither the primary nor secondary endpoints were met | cough
